For this assay, the target named is T1, squalene synthase (Rattus norvegicus, UniProt Q02769).
T1 construct: incubating rat liver homogenate with various concentrations of the test compound; from tissue; host or cells: rat liver homogenate
T1 sequence (Q02769 1-416): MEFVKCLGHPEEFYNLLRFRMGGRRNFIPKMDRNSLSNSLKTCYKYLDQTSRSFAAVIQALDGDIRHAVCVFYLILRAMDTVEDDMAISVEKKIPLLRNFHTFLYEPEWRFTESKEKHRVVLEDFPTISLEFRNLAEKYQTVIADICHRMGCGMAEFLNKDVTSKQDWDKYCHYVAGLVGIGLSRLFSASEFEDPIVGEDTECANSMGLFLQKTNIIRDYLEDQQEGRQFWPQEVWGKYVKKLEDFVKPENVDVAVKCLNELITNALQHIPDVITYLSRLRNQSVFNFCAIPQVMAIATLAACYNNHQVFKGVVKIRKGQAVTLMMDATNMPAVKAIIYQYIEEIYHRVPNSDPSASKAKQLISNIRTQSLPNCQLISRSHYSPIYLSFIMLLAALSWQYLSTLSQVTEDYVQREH
Description: Inhibition of squalene synthase in rat liver homogenate with [2-14C]farnesylpyrophosphate as substrate. The assay is classed as biochemical. To be noted: 50% inhibition of [14C]squalene production in a 30 minute assay, read-out: IC₅₀. The protocol: Acta, Volume 877, 50-60 (1986) and modified to include measurement of cholesterol by high performance liquid chromatography (h.p.l.c.).
[¹⁴C] Squalene was separated from unreacted substrate on thin layer chromatography plates and determined by liquid scintillation counting. Inhibition of squalene synthase was quantified by incubating rat liver homogenate with various concentrations of the test compound in the presence of [2-¹⁴C] farnesylpyrophosphate. The concentration of compound giving 50% inhibition of [¹⁴C] squalene production in a 30 minute assay was taken as the IC₅₀ value.
In the case of `C=C(CC[C@]12O[C@H](C(=O)O)[C@@](O)(C(=O)O)[C@](C(=O)O)(O1)[C@H](OC(=O)/C=C/[C@@H](C)C[C@@H](C)CC)[C@H]2O)[C@@H](OC(C)=O)[C@H](C)Cc1cccc(F)c1` (relative stereo) [Example 1(b), [1S-[1α(4R*,5S*),3α,4β,5α,6α(2E,4R*,6R*),7β]] 1-[4-Acetoxy-6-(3-fluorophenyl)-5-methyl-3-methylenehexyl]-4,6,7-trihydroxy-2,8-dioxabicyclo[3.2.1]octane-3,4,5-tricarboxylic acid, 6-(4,6-dimethyl-2-octenoate)], the IC50 is < 100 nM.

Turning to `C=C(CC[C@]12O[C@H](C(=O)O)[C@@](O)(C(=O)O)[C@](C(=O)O)(O1)[C@H](OC(=O)/C=C/[C@@H](C)C[C@@H](C)CC)[C@H]2O)[C@@H](OC(C)=O)[C@H](C)Cc1ccccc1F` (relative stereo) [Example 1(c), [1S-[1α(4R*,5S*),3α,4β,5α,6α(2E,4R*,6R*),7β]] 1-[4-Acetoxy-6-(2-fluorophenyl)-5-methyl-3-methylenehexyl]-4,6,7-trihydroxy-2,8-dioxabicyclo[3.2.1]octane-3,4,5-tricarboxylic acid, 6-(4,6-dimethyl-2-octenoate)], the IC50 is < 100 nM.

Regarding `C=C(CC[C@]12O[C@H](C(=O)O)[C@@](O)(C(=O)O)[C@](C(=O)O)(O1)[C@H](OC(=O)/C=C/[C@@H](C)C[C@@H](C)CC)[C@H]2O)[C@@H](OC(C)=O)[C@H](C)Cc1ccc(F)cc1` (relative stereo) [Example 1(a), [1S-[1α(4R*,5S*),3α,4β,5α,6α(2E,4R*,6R*),7β]] 1-[4-Acetoxy-6-(4-fluorophenyl)-5-methyl-3-methylenehexyll-4,6,7-trihydroxy-2,8-dioxabicyclo[3.2.1]octane-3,4,5-tricarboxylic acid, 6-(4,6-dimethyl-2-octenoate)], the IC50 is < 100 nM.
